Legend:
[1] = biological target: Amyloid-beta precursor protein (Homo sapiens, UniProt P05067); assay: Inhibition of amyloid beta (unknown origin) aggregation by Thiazin-red R displacement fluorescence assay
[2] = biological target: Microtubule-associated protein tau (Homo sapiens, UniProt P10636); assay: Inhibition of recombinant human microtubule associated protein tau aggregation by Thiazin-red R displacement fluorescence assay
Sequence of Microtubule-associated protein tau (P10636 whole entry): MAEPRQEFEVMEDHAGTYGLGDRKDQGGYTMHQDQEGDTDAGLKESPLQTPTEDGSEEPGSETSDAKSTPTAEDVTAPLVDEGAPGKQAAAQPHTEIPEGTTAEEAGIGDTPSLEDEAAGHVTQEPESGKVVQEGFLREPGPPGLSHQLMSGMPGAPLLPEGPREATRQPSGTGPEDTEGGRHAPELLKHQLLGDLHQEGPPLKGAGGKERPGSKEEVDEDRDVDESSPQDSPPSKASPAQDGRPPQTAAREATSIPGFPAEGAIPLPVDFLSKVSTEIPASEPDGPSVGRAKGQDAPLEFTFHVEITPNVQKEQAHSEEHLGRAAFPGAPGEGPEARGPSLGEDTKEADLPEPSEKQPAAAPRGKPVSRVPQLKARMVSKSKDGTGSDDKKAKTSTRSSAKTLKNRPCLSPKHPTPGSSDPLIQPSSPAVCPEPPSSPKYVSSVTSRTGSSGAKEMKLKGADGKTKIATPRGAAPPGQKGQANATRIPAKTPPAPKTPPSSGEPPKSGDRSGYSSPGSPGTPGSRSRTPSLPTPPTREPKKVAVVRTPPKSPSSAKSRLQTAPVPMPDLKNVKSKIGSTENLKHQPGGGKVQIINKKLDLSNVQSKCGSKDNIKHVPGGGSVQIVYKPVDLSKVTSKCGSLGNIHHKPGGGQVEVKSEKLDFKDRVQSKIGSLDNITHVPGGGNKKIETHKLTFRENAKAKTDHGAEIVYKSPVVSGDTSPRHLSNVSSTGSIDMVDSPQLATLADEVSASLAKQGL

Sequence of Amyloid-beta precursor protein (P05067 whole entry): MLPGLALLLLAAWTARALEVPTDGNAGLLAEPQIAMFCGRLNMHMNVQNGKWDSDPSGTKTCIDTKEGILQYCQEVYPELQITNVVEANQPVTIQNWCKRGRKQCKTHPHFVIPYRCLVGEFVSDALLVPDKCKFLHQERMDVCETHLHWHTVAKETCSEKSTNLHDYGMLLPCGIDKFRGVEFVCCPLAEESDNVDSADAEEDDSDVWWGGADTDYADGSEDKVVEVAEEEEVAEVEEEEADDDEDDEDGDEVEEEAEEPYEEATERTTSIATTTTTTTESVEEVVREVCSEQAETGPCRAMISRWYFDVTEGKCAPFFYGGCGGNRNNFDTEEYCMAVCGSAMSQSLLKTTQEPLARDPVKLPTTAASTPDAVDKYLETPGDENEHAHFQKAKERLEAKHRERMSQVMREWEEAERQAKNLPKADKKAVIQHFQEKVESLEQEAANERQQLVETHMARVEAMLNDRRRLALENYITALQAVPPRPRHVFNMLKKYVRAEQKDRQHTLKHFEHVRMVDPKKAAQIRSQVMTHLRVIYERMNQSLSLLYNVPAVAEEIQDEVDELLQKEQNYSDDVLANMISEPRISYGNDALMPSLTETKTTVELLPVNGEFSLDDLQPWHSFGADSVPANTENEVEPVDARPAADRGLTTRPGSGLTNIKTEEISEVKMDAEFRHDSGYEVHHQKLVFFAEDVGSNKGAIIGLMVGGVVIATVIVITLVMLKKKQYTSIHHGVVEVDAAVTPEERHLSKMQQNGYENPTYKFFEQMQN

IC50 [1] [nM] | IC50 [2] [nM] | Structure (SMILES)
> 10000 | 79 | COc1cc(/C=c2\sc3nc(-c4ccncc4C)cn3c2=O)ccc1O
32 | 8 | COc1cc(/C=c2\sc3nc(-c4ccncc4C)cn3c2=O)cc(OC)c1O
> 10000 | – | COc1cc(/C=c2\sc3nc(-c4cccc(OC(F)(F)F)c4)cn3c2=O)cc(F)c1O
